Assay results from ChEMBL document CHEMBL2331527, “New imidazo[1,2-a]pyridines carrying active pharmacophores: synthesis and anticonvulsant studies” (Bioorg Med Chem Lett, 2013).

Key:
[1] = tested on: Mus musculus; experiment: Neurotoxicity in ip dosed mouse assessed as minimum effective dose required to induce motor impairment measured after 4 hrs by Rotarod test; format: toxicity, organism-based; conditions: in vivo
[2] = tested on: Mus musculus; experiment: Neurotoxicity in ip dosed mouse assessed as minimum effective dose required to induce motor impairment measured after 0.5 hrs by Rotarod test; format: toxicity, organism-based; conditions: in vivo
[3] = tested on: Mus musculus; experiment: Anticonvulsant activity against maximal electroshock-induced seizures in NMRI mouse assessed as duration of tonic hindlimb extension at 10 mg/kg, ip measured after 0.5 hrs by maximal electroshock test (reference value: 15.35 +/-0.60%); format: functional; conditions: route intraperitoneal
[4] = tested on: Mus musculus; experiment: Anticonvulsant activity against maximal electroshock-induced seizures in NMRI mouse assessed as latency period for the onset of clonus at 10 mg/kg, ip measured after 0.5 hrs by maximal electroshock test (reference value: 2.18 +/-0.47 secs); format: functional; conditions: route intraperitoneal
[5] = tested on: Mus musculus; experiment: Anticonvulsant activity against subcutaneous pentylenetetrazole-induced seizures in mouse assessed as onset time for clonic seizures at 10 mg/kg, ip measured after 0.5 hrs by pentylene tetrazole test (reference value: 59.2 +/-1.11 secs); format: functional
[6] = tested on: Mus musculus; experiment: Anticonvulsant activity against subcutaneous pentylenetetrazole-induced seizures in mouse assessed as onset time for tonic seizures at 10 mg/kg, ip measured after 0.5 hrs by pentylene tetrazole test (reference value: 385.5 +/-10.90 secs); format: functional; conditions: route intraperitoneal

Row | Compound | MED [1] | MED [2] | Time [3] [s] | Time [4] [s] | Time [5] [s] | Time [6] [s]
1 | Cc1cccn2c(C3CC(c4ccc(Cl)cc4)=NN3)c(-c3ccc(F)cc3)nc12 (centres undefined) | Non-toxic | Non-toxic | 7.21 | 9.45 | 158.7 | 542.2
2 | Cc1cccn2c(C3CC(c4ccccc4)=NN3)c(-c3ccc(F)cc3)nc12 (centres undefined) | Non-toxic | Non-toxic | 6.54 | 10.97 | 149.3 | 528.2
3 | Cc1ccc(C2=NNC(c3c(-c4ccccc4)nc4c(C)cccn34)C2)cc1 (centres undefined) | – | – | 7.22 | 9.28 | 126.7 | 532.5
4 | Cc1cccn2c(C3CC(c4ccc(F)cc4)=NN3)c(-c3ccccc3)nc12 (centres undefined) | – | – | 7.15 | 9.25 | 79.32 | 426.8
5 | Cc1ccc(-c2nc3c(C)cccn3c2C2CC(c3cccs3)=NN2)cc1 (centres undefined) | Non-toxic | Non-toxic | 7.27 | 9.33 | 117.7 | 530.8
6 | Cc1cccn2c(-c3cc(-c4ccc([N+](=O)[O-])cc4)[nH]c(=O)c3C#N)c(-c3ccc(F)cc3)nc12 | 100 mg/kg | Non-toxic | 6.61 | 10.88 | 171.8 | 641.5
7 | Cc1cccn2c(-c3cc(-c4ccc(Cl)cc4)[nH]c(=O)c3C#N)c(-c3ccc(F)cc3)nc12 | Non-toxic | Non-toxic | 6.54 | 10.97 | 129.2 | 544.7
8 | COc1nc(-c2ccc(C)cc2)cc(-c2c(-c3ccc(F)cc3)nc3c(C)cccn23)c1C#N | Non-toxic | Non-toxic | 9.84 | 7.94 | 335.3 | 611.5
9 | COc1nc(-c2ccccc2)cc(-c2c(-c3ccc(F)cc3)nc3c(C)cccn23)c1C#N | Non-toxic | Non-toxic | 7.77 | 9.9 | 171.5 | 596
10 | COc1nc(-c2ccc([N+](=O)[O-])cc2)cc(-c2c(-c3ccc(F)cc3)nc3c(C)cccn23)c1C#N | – | – | 7.01 | 9.13 | 115.7 | 469.2
11 | COc1nc(-c2ccc(F)cc2)cc(-c2c(-c3ccccc3)nc3c(C)cccn23)c1C#N | Non-toxic | Non-toxic | 6.96 | 10.77 | 90.87 | 456.7
12 | COc1nc(-c2ccc([N+](=O)[O-])cc2)cc(-c2c(-c3ccccc3)nc3c(C)cccn23)c1C#N | Non-toxic | Non-toxic | 8.52 | 8.72 | 79.32 | 426.8
13 | COc1nc(-c2ccc(C)cc2)cc(-c2c(-c3ccccc3)nc3c(C)cccn23)c1C#N | Non-toxic | Non-toxic | 6.85 | 10.9 | 170.7 | 595.7
14 | Cc1cccn2c(-c3cc(-c4ccc(Cl)cc4)nc(N)n3)c(-c3ccc(F)cc3)nc12 | – | – | 9.88 | 7.95 | 109.7 | 480.2
15 | Cc1cccn2c(-c3cc(-c4ccc([N+](=O)[O-])cc4)nc(N)n3)c(-c3ccc(F)cc3)nc12 | – | – | 8.67 | 8.8 | 85.33 | 435.8
16 | Cc1ccc(-c2cc(-c3c(-c4ccc(F)cc4)nc4c(C)cccn34)nc(N)n2)cc1 | Non-toxic | Non-toxic | 8.15 | 8.16 | 171.4 | 593.2
17 | Cc1cccn2c(-c3cc(-c4ccccc4)nc(N)n3)c(-c3ccc(F)cc3)nc12 | Non-toxic | Non-toxic | 8.27 | 8.11 | 115.7 | 469.2
18 | Cc1cccn2c(-c3cc(-c4cccs4)nc(N)n3)c(-c3ccccc3)nc12 | Non-toxic | Non-toxic | 8.71 | 8.86 | 79.5 | 426.8
19 | Cc1ccc(-c2cc(-c3c(-c4ccccc4)nc4c(C)cccn34)nc(N)n2)cc1 | Non-toxic | Non-toxic | 8.52 | 8.72 | 90.83 | 454.7
20 | Cc1cccn2c(C3C=C(c4ccc(Cl)cc4)NC(=S)N3)c(-c3ccc(F)cc3)nc12 (centres undefined) | – | – | 7.77 | 9.9 | 82.5 | 435
21 | Cc1cccn2c(C3C=C(c4ccccc4)NC(=S)N3)c(-c3ccc(F)cc3)nc12 (centres undefined) | Non-toxic | Non-toxic | 8.13 | 8.04 | 107 | 479.7
22 | Cc1ccc(C2=CC(c3c(-c4ccccc4)nc4c(C)cccn34)NC(=S)N2)cc1 (centres undefined) | Non-toxic | Non-toxic | 7.45 | 9.75 | 79.34 | 426.5
23 | Cc1cccn2c(C3C=C(c4ccc(F)cc4)NC(=S)N3)c(-c3ccccc3)nc12 (centres undefined) | Non-toxic | Non-toxic | 6.87 | 10.91 | 90.83 | 454.7
24 | CN1C(=O)CN=C(c2ccccc2)c2cc(Cl)ccc21 [DIAZEPAM] | Non-toxic | Non-toxic | – | 13.17 | – | –
